Test results: patent US20130196996A1, “USE OF ISOXAZOLINE COMPOUNDS AND COMPOSITIONS IN BLADDER CANCER” (CPSI STOCKHOLDER TRUST, priority 2010, published 2013)
Values joined by “and” are separate entries in the source; they are usually repeats but may differ in a detail not shown here. Identical values can stand only once.

Legend:
[1] = system: BBN model of bladder cancer; assay: BBN model of bladder cancer, Experiment 1: bladder weight and pathology after oral gavage; type: in vivo, C57Bl/6 mice; conditions: for average bladder weight: Experiment 1, 25 mg/kg gavage weeks 16-22, control 0.5±0.5 gm; for mean of tissue involved with invasive disease (tumor burden) / upper tract obstruction (hydro-ureteronephrosis) at euthanasia: Experiment 1, 25 mg/kg gavage; for mean of tissue involved with invasive disease (tumor burden): SD ±30% (2705), ±32% (1306), control 81%; for upper tract obstruction (hydro-ureteronephrosis) at euthanasia: majority of control animals obstructed; for mean percentage of tumors representing invasive disease (FIG. 4E) / representative bladder tumor stage on H&E pathology: Experiment 1, 25 mg/kg; for mean percentage of tumors representing invasive disease (FIG. 4E): in words; for representative bladder tumor stage on H&E pathology: vehicle group infiltrative pT3 cancer; for Pieces involved / Pieces involved, in situ % / Pieces involved, inv % (invasive) / Squamous met and normal: Table 1, individual animal bladders, 25 mg/kg gavage weeks 16-22, 25 mg/kg
Experimental: (§1) Three-month old C57Bl/6 mice were purchased from Jackson Laboratories (Bar Harbor, Me.) and Charles River (Wilmington, Mass.). The animals were maintained at the University of Connecticut Center for Laboratory Animal Care under National Institutes of Health guidelines. All procedures were approved by an institutional animal care committee. The mice were housed in a controlled environment with a 12 hour light-12 hour dark cycle and provided food and water ad libitum.
(§2) All animals received BBN(N-butyl-N-(4-hydroxybutyl)-nitrosamine, TCI America, Portland, Oreg.) 0.05% in water in brown bottles for 22 weeks. BBN is known to induce cancer in the bladder. Mice were treated with either the CPSI compounds or vehicle for weeks 16-22. Timing of dosing was intended to correspond with the timeframe of tumor progression from CIS to invasive disease, as determined in prior experiments.
(§3) Thirty 3-month old male mice (n=10/group) were gavage fed either vehicle (PEG 300, methylcellulose) (control group), CPSI-2705, or CPSI-1306 at 25 mg/kg for weeks 16-22.
(§4) Animals were inspected daily for general health with weights recorded at least biweekly and more frequently in the last several weeks based on recorded weight loss. Animals were euthanized by CO2 inhalation and cervical dislocation. Bladders were harvested, weighed, placed in PBS/formaldehyde for 24 hours and then transferred to PBS. Upper tracts (kidney and ureters) were inspected for hydronephrosis. Bladders were assessed for tumor stage and grade and amount of pathologic involvement with invasive disease. Bladders were sectioned in the mid-sagital plane, laid flat on the medial surface and step sectioned for whole mount pathologic analysis. Haematoxylin and eosin (H&E) staining was carried out to assess for histology and pathology. Bladders were step sectioned, embedded in paraffin, serially sectioned and stained with H&E and assessed for tumor stage and grade and amount of pathologic involvement with invasive disease. A single pathologist reviewed all slides in a blinded manner to provide a pathological diagnosis. As a tumor develops in the bladder, the size and weight of the bladder increases. Bladder weight is therefore a useful surrogate for bladder tumor burden, representing the relative amount of bladder tumor that develops during continual exposure to the carcinogen, BBN.
(§5) Values shown are means±SEM. […] Statistical analysis was performed using SPSS® version 2.03 (San Rafael, Calif.). Differences were examined by one-way analysis of variance (ANOVA) followed by the post-hoc Dunnett's test.

[2] = system: BBN model of bladder cancer; assay: BBN model of bladder cancer, Experiment 2: escalating dose of CPSI-1306; type: in vivo, C57Bl/6 mice; conditions: for mean bladder weights at euthanasia as surrogate for tumor volume, effect vs vehicle: p<0.05 Dunnett post-hoc
Experimental: as §1, §2
Sixty 3-month old male mice (n=˜8/group) were gavage fed an escalating dose of CPSI-1306 (0.001, 0.01, 0.1, 1.0, 10 or 25 mg/kg) or vehicle (PEG 400, H2O) for weeks 16-22.
as §4, §5

[3] = Body weight, general health and survival of BBN mice, Experiment 1; type: in vivo
Experimental: as §2, §3
Animals were inspected daily for general health with weights recorded at least biweekly and more frequently in the last several weeks based on recorded weight loss. Animals were euthanized by CO2 inhalation and cervical dislocation. Bladders were harvested, weighed, placed in PBS/formaldehyde for 24 hours and then transferred to PBS. Upper tracts (kidney and ureters) were inspected for hydronephrosis. Bladders were assessed for tumor stage and grade and amount of pathologic involvement with invasive disease. […] Bladders were step sectioned, embedded in paraffin, serially sectioned and stained with H&E and assessed for tumor stage and grade and amount of pathologic involvement with invasive disease. […]

[4] = Experiment 2, dose escalation, in words

| SMILES | average bladder weight [1] [gm] | mean of tissue involved with invasive disease (tumor burden) [1] [%] | upper tract obstruction (hydro-ureteronephrosis) at euthanasia [1] | mean percentage of tumors representing invasive disease (FIG. 4E) [1] | representative bladder tumor stage on H&E pathology [1] | mean bladder weight, fold less than control group ([1]; Experiment 1, FIG. 1, p=0.06) [fold] | Pieces involved [1] | Pieces involved, in situ % [1] | Pieces involved, inv % (invasive) [1] | Squamous met and normal [1] | mean bladder weights at euthanasia as surrogate for tumor volume, effect vs vehicle ([2]; Experiment 2, 0.1 mg/kg gavage weeks 16-22) | mean bladder weights at euthanasia as surrogate for tumor volume, effect vs vehicle ([2]; Experiment 2, 1.0 mg/kg gavage weeks 16-22) | mean percentage of tumor representing invasive disease (FIG. 5B) [2, 4] | percentage of bladders in each dosing group with each pathologic stage (FIG. 5A) [2, 4] | general health appearance during drug treatment ([3]; Experiment 1, 25 mg/kg gavage, compared to the other two treatment arms) | animals died prior to completion of the study ([3]; Experiment 1, n=10/group, 25 mg/kg gavage, control also two) |
| --- | --- | --- | --- | --- | --- | --- | --- | --- | --- | --- | --- | --- | --- | --- | --- | --- |
| O=C(C[C@H]1CC(c2ccc(F)cc2F)=NO1)N1CCOCC1 [CPSI-1306] | 0.2±0.2 | 59 | none seen | Smaller tumors with a smaller percentage of invasiveness | focal pT3 with areas of normal mucosa | 2.5 | 4 (6×) and 2 and 7 and 6 and 3 − inv, 1 − in situ | 5% (2×) and (15 + 15%) and 10% (2×) and 15% | 25% and (15 + 15%) and (20%) and (90%) (2×) and (95%) and 35% and 70% and 80% and 65% | 70% (2×) and 80% and 10% (3×) and <5% and 55% and 25% and 20% | significant effect | significant effect | Smaller tumors with a smaller percentage of invasiveness | A decrease in the percentage of higher stage tumors | appeared healthier | – |
| CN(C(=O)C[C@H]1CC(c2ccc(Cl)cc2)=NO1)C1CCCCC1 [CPSI-2705] | 0.3±0.3 | 62 | Fewer animals were noted to have obstruction | Smaller tumors with a smaller percentage of invasiveness | pT1 disease | – | 8 (3×) and 2 (2×) and 6 and 4 (2×) and 1 − inv, 3 − in situ and 10 | 10% (2×) and 5% (2×) and 20% | 80% and 85% and (60%) and (70%) and 60% and (30%) and 10% and 30% and (95%) (2×) | 10% (2×) and 40% and 30% (2×) and 70% (2×) and 65% and <5% (2×) | – | – | – | – | – | Two |
